# Test results from patent publication US20030195169A1, “Phosphate prodrugs of fluorooxindoles” (priority 2002, published 2003).
# What was measured:
# [1] = cited from earlier work
# [2] = Solubility (qualitative statements); format: physicochemical
# [3] = tested on: cloned mammalian (mSlo or hSlo) BK channels heterologously expressed in Xenopus oocytes; test: BK-mediated outward current, two-electrode voltage clamp in Xenopus oocytes; format: cell-based; settings: 10 μM; at least 5 oocytes
# Procedure: (§1) The ability of the compound of Formula II to open BK channels and increase whole-cell outward (K^+) BK-mediated currents was assessed under voltage-clamp conditions by determining their ability to increase cloned mammalian (mSlo or hSlo) BK-mediated outward current heterologously expressed in Xenopus oocytes [Butler, A., et al., Science, 261, pp. 221-224 (1993); and Dworetzky, S. I., et al., Mol. Brain Res., 27, pp. 189-193 (1994)]. The two BK constructs employed represent nearly structurally identical homologous proteins, and have proven to be pharmacologically identical in our tests. To isolate BK current from native (background, non-BK) current, the specific and potent BK channel-blocking toxin iberiotoxin (IBTX) [Galvez, A., et al., J. Biol. Chem, 265, pp. 11083-11090 (1990)] was employed at a supramaximal concentration (50 nM). The relative contribution of BK channels current to total outward current was determined by subtraction of the current remaining in the presence of IBTX (non-BK current) from the current profiles obtained in all other experimental conditions (control, drug, and wash). […] The compound of Formula II was shown in at least 5 oocytes at a concentration of 10 μM to increase BK current to 170% of control of IBTX-sensitive current. […]
# [4] = tested on: non-BK native currents in the oocytes; test: Non-BK native currents in oocytes (current remaining in presence of IBTX); format: cell-based, Xenopus; settings: at the tested concentration
# Procedure: as §1
# [5] = tested on: focal cerebral ischemia (MCAO) in the Wistar rat; test: Focal stroke model, permanent MCA/CCA occlusion; format: in vivo; settings: 0.3 mg/kg intravenously, single bolus two hours after MCAO; vs vehicle-treated control; 24 hours after MCAO
# Procedure: To determine the ability of the compounds of the present invention to reduce cell loss resulting from neuronal ischemia, a standard focal cerebral ischemia is induced by permanent occlusion of the left middle cerebral artery (MCA) and common carotid artery (CCA) with one hour occlusion of the right CCA in the Wistar rat. The surgeries are performed using the sub-temporal approach of A. Tamura, et al., J. Cereb. Blood Flow Metab., 1, pp. 53-60, (1981) and its modifications [K. Osborne, et al., J. Neurol Neurosurg. Psychiatry, 50, pp. 402-410 (1987) and S. Menzies, et al., Neurosurgery, 31, pp. 100-107, (1992)].
# The compound of Formula II was evaluated in the focal stroke model involving permanent occlusion of the left MCA (MCAO) and CCA (CCAO) and temporary occlusion of the right CCA in the Wistar rat [Gribkoff, et al. Nature Med. 7, pp. 471-477 (2001)]. This procedure results in a reliably large neocortical infarct volume that is measured by means of vital dye exclusion in serial slices through the brain 24 hours after MCAO. In the present test, compounds were administered using an i.v. or i.p. route of administration two hours after occlusion.
# [6] = Rat blood levels of compound (S)-II after prodrug administration; format: in vivo, male Sprague-Dawley rats; settings: intravenous bolus, dose equivalent to 1 mg/kg of (S)-II; whole blood; LC/MS/MS; n=3 rats/timepoint
# Procedure: The compound of Formula (S)-II or a prodrug of Formula I was administered intravenous bolus to male Sprague-Dawley rats (n=3 rats/timepoint) at a target dose equivalent to 1 mg/kg of the compound of Formula (S)-II. At T=0.25, 1 and 2 hours post-dose, whole blood samples were collected and extracted with acetonitrile. Blood extracts were analyzed by LC/MS/MS for levels of the compound of Formula (S)-II.
# [7] = tested on: rat traumatic brain injury (TBI) model; test: Rat traumatic brain injury (lateral fluid percussion) model, intracranial pressure (ICP) measurement; format: in vivo; settings: 0.08 mg/kg
# Procedure: To determine the ability of the compounds of the present invention to decrease the amount of neuronal damage following head injury, a standard model of traumatic brain injury was employed. The rat traumatic brain injury (TBI) model is used to evaluate compounds for effectiveness in reversing or preventing the deleterious effects of a concussion-like injury. In general, rats in this model were anesthetized, a craniotomy is performed (surgical opening of the skull), and then saline was injected into the opening to produce a precise pulse of increased intracranial pressure (commonly called a fluid percussion injury). Animals were administered compound at the specified doses at 15 minutes following trauma. Animals were euthanized 48 hours post TBI.
# Moderate diffuse brain injury (defined by McIntosh, et al. Neuroscience, 28:233-44 (1989)) was induced by a fluid-percussion device. The apparatus produces contusion via the rapid injection of a saline pulse [˜2.1 to 2.7 atmospheres of pressure (atm)] at a constant duration (21-23 millisecond) into a closed cranial cavity. The saline pulse results in the brief displacement and deformation of the underlying cortex. This model is thought to mimic the clinical situation where a patient experiences a concussion-like injury characterized by brief neurological and systemic physiological alterations without severe structural damage. The fluid percussion device produces brain injury without directly impacting the brain. Diffuse brain injury is achieved by the release of a weighted (4.8 kg) metal pendulum from a predetermined height (McIntosh, et al 1989) that strikes a cork-covered piston at the end of a Plexiglass cylindrical reservoir filled with isotonic saline. Varying volumes of saline are injected into the closed cranial cavity producing a pulse of increased intracranial pressure (ICP). Varying the height of the pendulum controls the magnitude of the injury.
# In an alternate method, the severity of brain damage was assessed by Intracranial Pressure (ICP) measurement at various intervals post fluid percussion up to 24 hours. In brief, prior to the fluid percussion a burr hole was made 1 mm from the sagittal suture, centered over the right parietal cortex 5 mm from lambda, 5 mm from bregma. Following fluid percussion injury, the trauma cap and cranioplastic cement were removed. In order to achieve adequate ICP values, while still under anesthesia, the craniotomy cap was re-inserted in its original location post fluid percussion. Pre-cut sterile foil was also placed over the craniotomy cap. Cranioplastic cement was placed over the foil to seal the brain cavity. To obtain continuous ICP measurements the probe was inserted into the burr hole and fixed by cranioplastic cement, the animal was then sutured (using 3-0) and the rat was placed in a Hopper cage to allow for free movement during the experiment. Next, the ICP transducer was connected to a Codman ICP monitor for continuous ICP measurements up to 24 hrs post-TBI or post-sham injury. During this time the animal had regular access to water and food. At 24 hrs post-TBI the experiment was terminated and animals were euthanatized by sodium pentobarbital overdose (130 mg/kg; i.p.).
# These experiments consist of a sham-vehicle group (SV), a TBI-vehicle group (TV), sham-drug treated groups (SD; 0.08 mg/kg compound of Example 14 [dose equivalent of 0.05 mg/kg compound of Formula (S)-II]) and TBI-drug treated groups (TD; 0.08 mg/kg compound of Example 14). Each sham group acted as a control for the corresponding TBI group. All of the animals underwent anesthesia and surgery. In the TBI groups, brain injury was induced using the lateral fluid-percussion model. Drug treatment was initiated at 15 minutes post-TBI or sham-injury. […] Five minutes post injury absolute ICP (raw data) increased 6.8 mmHg units in TV animals compared to SV animals (SV-5.55 vs. TV-12.35). […]
compound,measurement,setting,value
"COc1ccc(Cl)cc1[C@]1(F)C(=O)Nc2cc(C(F)(F)F)ccc21 [Compound of Formula (S)-II, (3S)-(+)-(5-chloro-2-methoxyphenyl)-1,3-dihydro-3-fluoro-6-(trifluoromethyl)-2H-indol-2-one]",aqueous solubility,[1],low aqueous solubility
"COc1ccc(Cl)cc1[C@]1(F)C(=O)N(COP(=O)([O-])[O-])c2cc(C(F)(F)F)ccc21.[Mg+2] [Example 18, (S)-Phosphoric acid mono-[3-(5-chloro-2-methoxy-phenyl)-3-fluoro-2-oxo-6-trifluoromethyl-2,3-dihydro-indol-1-ylmethyl] ester, magnesium salt]",solubility in water,[2],marginally soluble in water
same,solubility in organic solvents,[2]; relative to water,more soluble in organic solvents
"COc1ccc(Cl)cc1C1(F)C(=O)Nc2cc(C(F)(F)F)ccc21 (racemic) [compound of Formula II, 3-(5-chloro-2-methoxyphenyl)-1,3-dihydro-3-fluoro-6-(trifluoromethyl)-2H-indol-2-one]","BK current, % of control of IBTX-sensitive current",[3],170 % of control
same,effect on non-BK native currents in the oocytes,[4],did not effect non-BK native currents
same,reduction of cortical infarct volume,[5],about 28%
"(S)-Phosphoric acid mono-[3-(5-chloro-2-methoxy-phenyl)-3-fluoro-2-oxo-6-trifluoromethyl-2,3-dihydro-indol-1-ylmethyl] ester, mono tetrabutylammonium salt [Example 2]",Truncated Blood AUC(0.25-2 hr) Compound of Formula (S)-II,[6],188 ng·h/mL
"COc1ccc(Cl)cc1[C@]1(F)C(=O)N(COP(=O)([O-])[O-])c2cc(C(F)(F)F)ccc21.[K+].[K+] [Example 14, (S)-Phosphoric acid mono-[3-(5-chloro-2-methoxy-phenyl)-3-fluoro-2-oxo-6-trifluoromethyl-2,3-dihydro-indol-1-ylmethyl] ester, potassium salt]","intra-animal mean ICP reduction, TD",[7]; 30 minutes post injury,−2.85 mmHg
same,"intra-animal mean ICP reduction, TD",[7]; 45 minutes post injury,−3.95 mmHg
same,"absolute ICP, TD vs TV, significance","[7]; 45 minutes, 60 minutes, 2, 3, 4 and 24 hours post-TBI",significantly different from TV
same,"intra-animal mean ICP reduction, TD",[7]; 60 min post injury,−4.5 mmHg
same,"reduction of absolute ICP, TD vs TV",[7]; 60 minutes post injury (45 minutes post-drug injection),3.1 mmHg units
same,"intra-animal mean ICP reduction, TD",[7]; 2 hours post injury,−4.3 mmHg
same,"intra-animal mean ICP reduction, TD",[7]; 3 hr post injury,−4.3 mmHg
same,"intra-animal mean ICP reduction, TD",[7]; 4 hours post injury,−4.15 mmHg
same,"intra-animal mean ICP reduction, sham-drug group (SD)",[7]; 4 hours post-sham injury,−2.1 mmHg
same,"intra-animal mean ICP reduction, TD",[7]; 24 hours post injury,−3.05 mmHg
same,"ICP, SD vs SV, significance","[7]; sham injury, until 4 hours post-sham injury",did not significantly differ from SV
